Measured values: publication PMC4464269, “Potential of acylated peptides to target the influenza A virus” (Beilstein Journal of Organic Chemistry, 2015)
Where “and” joins values, the source holds several entries; their conditions need not be identical. Equal values may be shown once. Ends that are not written are not given here.

Key:
human erythrocytes [1] = assay: Hemolysis assay; format: cell-based; settings: 2% human erythrocytes, 1 h at 37 °C, absorption of the supernatant at 540 nm; titration, three experiments; for C18-s2s above concentrations of 20 µM
Protocol: To assess how strong membrane incorporation of these peptides can perturb membranes we measured their cell lytic activity in a titration experiment with human erythrocytes. […] For EB the same has been reported by Jones et al..
Figure 7 Hemolytic activity of stearylated peptides and EB. 2% human erythrocytes were incubated for one hour with peptides at 37 °C. After centrifugation, the hemolytic activity was assessed by absorption measurement of the supernatant at 540 nm. Error bars indicate the SEM of three titration experiments.
Peptide inhibitors were serially diluted in PBS, mixed with a 2% human erythrocyte solution, and incubated for 1 h at 37 °C. Afterwards, the mix was centrifuged for 10 min at 1500 x g.
Supernatants were measured for absorption at 540 nm representative for hemoglobin release. Buffer absorbance was subtracted from all data points.
Protection from infection assay
Viral infection inhibition assays were performed using an MTS reagent (Promega). 15,000 MDCK II cells were seeded the day before infection. […] Two hours before the readout, 20 µL MTS solution (Promega) was added to each well and put back to 37 °C for the remaining time. Finally, absorbance at 490 nm was measured by a plate reader (Fluostar optima, BMG) and data were normalized to maximum viral cytotoxicity. […]

human erythrocytes [2] = format: cell-based
[3] = tested on: Aichi H3N2 virus (X31) mediated hemagglutination of human erythrocytes; format: cell-based, influenza A virus A/Aichi/2/1968 H3N2 (X31)
[4] = format: physicochemical; settings: for hydrodynamic diameter (DLS): Zetasizer Nano ZS, back scattering 173°
[5] = tested on: Rostock H7N1 virus mediated hemagglutination of turkey erythrocytes; format: cell-based, influenza A virus A/FPV/Rostock/34 H7N1
[6] = tested on: infection of MDCK II cells by Aichi H3N2; format: cell-based, influenza A virus A/Aichi/2/1968 H3N2 (X31)
[7] = format: physicochemical; settings: 2 mM in PBS, negative staining with 1% phosphotungstic acid pH 7.4; cryo-TEM gave the same results
[8] = tested on: infection of MDCK II cells by Rostock H7N1; format: cell-based, influenza A virus A/FPV/Rostock/34 H7N1
Hongkong H5N1 = settings: read-out: IC50 against Hongkong H5N1; cited from earlier work
Aichi H3N2 = settings: at higher viral titer than used in this paper; ref [14]; read-out: IC50 against Aichi H3N2 in the HAI; cited from earlier work
Protocol: The potential to inhibit binding of influenza viruses to cells can be investigated by the well-established hemagglutination inhibition assay (HAI). All peptides, but the control peptide C18-rs2s were able to inhibit Aichi H3N2 virus mediated hemagglutination already at low micromolar concentrations (Table 2). For EB an IC50 of 20 µM against Aichi H3N2 in the HAI has been determined, however at higher viral titer than we used.

[9] = 20 µM in PBS (10 mM, pH 7.4), volume distribution profile

In the case of “C17H35CO-ARLPRTMV-CONH2 [C18-s2s, stearylated sialic acid mimetic peptide (Matsubara et al. 2010)]”, the hemolytic activity (human erythrocytes [1]) is reported as “extremely hemolytic”, the KiA (human erythrocytes [2]) is reported as 7.0 ± 0.8 µM and the “KiHAI (Aichi H3N2)” value [3] is reported as 0.8 ± 0.5 µM. The “volume size distribution (DLS), in words” value ([4]; 20 µM in PBS (10 mM, pH 7.4)) was “multimodal”.

With “C17H35CO-XXXXXXXXXXXXXXX-CONH2 [C18-PeB^GF, stearylated HA antibody derived antiviral peptide]” the “KiHAI (Rostock H7N1)” value [5] was 2.8 µM and 2.8 ± 0.9 µM, the “decrease of the KiHAI value compared with unmodified PeB^GF, H7N1” value [5] was 10 fold and the “enhancement of inhibitory potential in infection inhibition compared with unmodified PeB^GF, Aichi H3N2” value [6] was “approx. 5 fold”. For the same substance, the IC50 ([6]; read-out: IC50, infection inhibition of MDCK cells by Aichi H3N2) was 5.9 µM, the KiA (human erythrocytes [2]) was 100.0 ± 0.0 µM and the “morphology of assemblies (TEM)” value [7] was “fibrillar supramolecular arrangement being up to several hundred nanometers long”. The “KiHAI (Aichi H3N2)” value [3] was 1.2 ± 0.0 µM, the “decrease of the KiHAI value compared with unmodified PeB^GF, Aichi H3N2” value [3] was 20 fold and the “PDI (DLS)” value ([4]; 20 µM in PBS (10 mM, pH 7.4)) was 0.454. For the same substance, the “share of bigger supramolecular structures (DLS)” value [4, 9] was 10–15%, the “hydrodynamic diameter (DLS)” value [4, 9] was 16.7 nm and the “size of supramolecular aggregates (DLS)” value ([4]; concentration of 100 µM) was greater than 1 µm. For the same substance, the “enhancement of inhibition in infection inhibition compared with unmodified PeB^GF, Rostock H7N1” value [8] was “did not increase” and the IC50 ([8]; read-out: IC50, infection inhibition of MDCK cells by Rostock H7N1) was 84 µM.

For RRKKAAVALLPAVLLALLAP-NH2 [EB], the IC50 (Hongkong H5N1) is given as 4.5 µM, the KiA (human erythrocytes [2]) is given as 8.6 ± 7.0 µM and the “KiHAI (Aichi H3N2)” value [3] is given as 1.6 ± 0.3 µM. For the same substance, the IC50 (Aichi H3N2) was 20 µM.

For “C17H35CO-VMTRPLRA-CONH2 [C18-rs2s, reference compound]”, the KiA (human erythrocytes [2]) was 4.1 ± 2.1 µM, the “KiHAI (Aichi H3N2)” value [3] was “no effect” and the “PDI (DLS)” value ([4]; 20 µM in PBS (10 mM, pH 7.4)) was 0.328. The “hydrodynamic diameter (DLS)” value [4, 9] was 818.8 nm.
